Experiment: logP determination by retention times (calibration with alkan-2-ones)
Settings: logP, linear gradient 10% to 95% acetonitrile
[1] = * HPLC reversed-phase C18, 40° C., mobile phase 0.1% aqueous formic acid and acetonitrile
[2] = ** HPLC reversed-phase C18, 43° C., mobile phase 0.1% aqueous phosphoric acid and acetonitrile

SMILES	chromatographic logP [1]	chromatographic logP [2]
COc1cccc(Nc2nccc(-c3sc(NCC4CCCO4)nc3C)n2)c1 (stereo not drawn) [Example 451, N-(3-methoxyphenyl)-4-{4-methyl-2-[(tetrahydrofuran-2-ylmethyl)amino]-1,3-thiazol-5-yl}pyrimidine-2-amine]	1.94	
CC(=O)Nc1ccc(Nc2nccc(-c3sc(C)nc3C)n2)cc1 [Example 458, N-(4-{[4-(2,4-dimethyl-1,3-thiazol-5-yl)pyrimidin-2-yl]amino}phenyl)acetamide]	1.62	
CC(=O)Nc1ccc(Nc2nccc(-c3sc(C4CC4)nc3C)n2)cc1 [Example 459, N-(4-{[4-(2-cyclopropyl-4-methyl-1,3-thiazol-5-yl)pyrimidin-2-yl]amino}phenyl)acetamide]	2	
Cc1nc(C)c(-c2ccnc(Nc3ccc(Cl)cc3)n2)s1 [Example 462, N-(4-chlorophenyl)-4-(2,4-dimethyl-1,3-thiazol-5-yl)pyrimidine-2-amine]		3.09
CCc1nc(C)c(-c2ccnc(Nc3ccc(Cl)cc3)n2)s1 [Example 463, N-(4-chlorophenyl)-4-(2-ethyl-4-methyl-1,3-thiazol-5-yl)pyrimidine-2-amine]	3.72	
Cc1nc(C(C)C)sc1-c1ccnc(Nc2ccc(Cl)cc2)n1 [Example 464, N-(4-chlorophenyl)-4-(2-isopropyl-4-methyl-1,3-thiazol-5-yl)pyrimidine-2-amine]	4.25	
COCc1nc(C)c(-c2ccnc(Nc3ccc(Cl)cc3)n2)s1 [Example 465, N-(4-chlorophenyl)-4-[2-(methoxymethyl)-4-methyl-1,3-thiazol-5-yl]pyrimidine-2-amine]	3.29	
COCc1nc(C)c(-c2ccnc(Nc3ccc(F)c(C)c3)n2)s1 [Example 478, N-(4-fluoro-3-methylphenyl)-4-[2-(methoxymethyl)-4-methyl-1,3-thiazol-5-yl]pyrimidine-2-amine]	3.14	
CSc1nc(C)c(-c2ccnc(Nc3ccc(F)c(C)c3)n2)s1 [Example 481, N-(4-fluoro-3-methylphenyl)-4-[4-methyl-2-(methylthio)-1,3-thiazol-5-yl]pyrimidine-2-amine]	3.89	
COCC(C)Nc1nc(C)c(-c2ccnc(Nc3ccc(F)c(C)c3)n2)s1 (stereo not drawn) [Example 482, N-(4-fluoro-3-methylphenyl)-4-{2-[(2-methoxy-1-methylethyl)amino]-4-methyl-1,3-thiazol-5-yl}pyrimidine-2-amine]	2.19	
Cc1cc(Nc2nccc(-c3sc(NCC4CCCO4)nc3C)n2)ccc1F (stereo not drawn) [Example 483, N-(4-fluoro-3-methylphenyl)-4-{4-methyl-2-[(tetrahydrofuran-2-ylmethyl)amino]-1,3-thiazol-5-yl}pyrimidine-2-amine]	2.03	
Cc1nc(C(C)C)sc1-c1ccnc(Nc2ccc(F)cc2)n1 [Example 485, N-(4-fluorophenyl)-4-(2-isopropyl-4-methyl-1,3-thiazol-5-yl)pyrimidine-2-amine]	3.58	
COCc1nc(C)c(-c2ccnc(Nc3ccc(F)cc3)n2)s1 [Example 486, N-(4-fluorophenyl)-4-[2-(methoxymethyl)-4-methyl-1,3-thiazol-5-yl]pyrimidine-2-amine]	2.8	
COCC(C)Nc1nc(C)c(-c2ccnc(Nc3ccc(F)cc3)n2)s1 (stereo not drawn) [Example 488, N-(4-fluorophenyl)-4-{2-[(2-methoxy-1-methylethyl)amino]-4-methyl-1,3-thiazol-5-yl}pyrimidine-2-amine]	2	
Cc1nc(NCC2CCCO2)sc1-c1ccnc(Nc2ccc(F)cc2)n1 (stereo not drawn) [Example 489, N-(4-fluorophenyl)-4-{4-methyl-2-[(tetrahydrofuran-2-ylmethyl)amino]-1,3-thiazol-5-yl}pyrimidine-2-amine]	2.1	
CC(=O)Nc1nc(C)c(-c2ccnc(Nc3cccc(Cl)c3)n2)s1 [Example 515, N-(5-{2-[(3-chlorophenyl)amino]pyrimidin-4-yl}-4-methyl-1,3-thiazol-2-yl)acetamide]		2.49
COc1ccc(Nc2nccc(-c3sc(SC)nc3C)n2)cn1 [Example 522, N-(6-methoxypyridin-3-yl)-4-[4-methyl-2-(methylthio)-1,3-thiazol-5-yl]pyrimidine-2-amine]	2.67	
COc1ccc(Nc2nccc(-c3sc(NCC4CCCO4)nc3C)n2)cn1 (stereo not drawn) [Example 523, N-(6-methoxypyridin-3-yl)-4-{4-methyl-2-[(tetrahydrofuran-2-ylmethyl)amino]-1,3-thiazol-5-yl}pyrimidine-2-amine]	1.57	
CSc1nc(C)c(-c2ccnc(Nc3ccc(N(C)C)cc3)n2)s1 [Example 524, N,N-dimethyl-N′-{4-[4-methyl-2-(methylthio)-1,3-thiazol-5-yl]pyrimidin-2-yl}benzene-1,4-diamine]	1.75	
Cc1nc(C2CC2)sc1-c1ccnc(Nc2cccc(CN)c2)n1 [Example 537, N-[3-(aminomethyl)phenyl]-4-(2-cyclopropyl-4-methyl-1,3-thiazol-5-yl)pyrimidine-2-amine]	1.45	

SMILES	chromatographic logP [1]	chromatographic logP [2]
COCc1nc(C)c(-c2ccnc(Nc3ccc(NC(C)=O)cc3)n2)s1 [Example 544, N-[4-({4-[2-(methoxymethyl)-4-methyl-1,3-thiazol-5-yl]pyrimidin-2-yl}amino)phenyl]acetamide]	1.8	
Cc1nc(C)c(-c2ccnc(Nc3cccc(N(C)C)c3)n2)s1 [Example 551, N′-[4-(2,4-dimethyl-1,3-thiazol-5-yl)pyrimidin-2-yl]-N,N-dimethylbenzene-1,3-diamine]	1.75	
Cc1nc(C)c(-c2ccnc(Nc3ccc(N(C)C)cc3)n2)s1 [Example 552, N′-[4-(2,4-dimethyl-1,3-thiazol-5-yl)pyrimidin-2-yl]-N,N-dimethylbenzene-1,4-diamine]	1.41	
Cc1nc(C2CCCCC2)sc1-c1ccnc(Nc2ccc(N(C)C)cc2)n1 [Example 553, N′-[4-(2-cyclohexyl-4-methyl-1,3-thiazol-5-yl)pyrimidin-2-yl]-N,N-dimethylbenzene-1,4-diamine]	2.38	
Cc1nc(C2CC2)sc1-c1ccnc(Nc2cccc(N(C)C)c2)n1 [Example 554, N′-[4-(2-cyclopropyl-4-methyl-1,3-thiazol-5-yl)pyrimidin-2-yl]-N,N-dimethylbenzene-1,3-diamine]	2.19	
Cc1nc(C2CC2)sc1-c1ccnc(Nc2ccc(N(C)C)cc2)n1 [Example 555, N′-[4-(2-cyclopropyl-4-methyl-1,3-thiazol-5-yl)pyrimidin-2-yl]-N,N-dimethylbenzene-1,4-diamine]	1.63	
CC(=O)Nc1nc(C)c(-c2ccnc(Nc3ccccc3)n2)s1 [Example 560, N-[5-(2-anilinopyrimidin-4-yl)-4-methyl-1,3-thiazol-2-yl]acetamide]	2.09	
COCC(C)Nc1nc(C)c(-c2ccnc(Nc3cccc(NC(C)=O)c3)n2)s1 (stereo not drawn) [Example 569, N-{3-[(4-{2-[(2-methoxy-1-methylethyl)amino]-4-methyl-1,3-thiazol-5-yl}pyrimidin-2-yl)amino]phenyl}acetamide]	1.47	
COCC(C)Nc1nc(C)c(-c2ccnc(Nc3cccc(NS(C)(=O)=O)c3)n2)s1 (stereo not drawn) [Example 570, N-{3-[(4-{2-[(2-methoxy-1-methylethyl)amino]-4-methyl-1,3-thiazol-5-yl}pyrimidin-2-yl)amino]phenyl}methanesulphonamide]	1.57	
COCC(C)Nc1nc(C)c(-c2ccnc(Nc3ccc(NC(C)=O)cc3)n2)s1 (stereo not drawn) [Example 578, N-{4-[(4-{2-[(2-methoxy-1-methylethyl)amino]-4-methyl-1,3-thiazol-5-yl}pyrimidin-2-yl)amino]phenyl}acetamide]	1.43	
CC(=O)Nc1ccc(Nc2nccc(-c3sc(NCC4CCCO4)nc3C)n2)cc1 (stereo not drawn) [Example 580, N-{4-[(4-{4-methyl-2-[(tetrahydrofuran-2-ylmethyl)amino]-1,3-thiazol-5-yl}pyrimidin-2-yl)amino]phenyl}acetamide]	1.39	
Cc1nc(C)c(-c2ccnc(Nc3ccc4c(c3)OCO4)n2)s1 [Example 616, N-1,3-benzodioxol-5-yl-4-(2,4-dimethyl-1,3-thiazol-5-yl)pyrimidine-2-amine]	2.44	
Cc1nc(C2CC2)sc1-c1ccnc(Nc2ccc3c(c2)OCO3)n1 [Example 617, N-1,3-benzodioxol-5-yl-4-(2-cyclopropyl-4-methyl-1,3-thiazol-5-yl)pyrimidine-2-amine]	2.96	
CCc1nc(C)c(-c2ccnc(Nc3ccc4c(c3)OCO4)n2)s1 [Example 618, N-1,3-benzodioxol-5-yl-4-(2-ethyl-4-methyl-1,3-thiazol-5-yl)pyrimidine-2-amine]	2.77	
Cc1nc(C(C)C)sc1-c1ccnc(Nc2ccc3c(c2)OCO3)n1 [Example 619, N-1,3-benzodioxol-5-yl-4-(2-isopropyl-4-methyl-1,3-thiazol-5-yl)pyrimidine-2-amine]	3.25	
COCc1nc(C)c(-c2ccnc(Nc3ccc4c(c3)OCO4)n2)s1 [Example 620, N-1,3-benzodioxol-5-yl-4-[2-(methoxymethyl)-4-methyl-1,3-thiazol-5-yl]pyrimidine-2-amine]	2.47	
CC(=O)N(Cc1cccc(Nc2nccc(-c3sc(C4CC4)nc3C)n2)c1)C(C)=O [Example 621, N-acetyl-N-(3-{[4-(2-cyclopropyl-4-methyl-1,3-thiazol-5-yl)pyrimidin-2-yl]amino}benzyl)acetamide]	1.87	
CC(=O)N(Cc1cccc(N(C(C)=O)c2nccc(-c3sc(C4CC4)nc3C)n2)c1)C(C)=O [Example 622, N-acetyl-N-(3-{acetyl[4-(2-cyclopropyl-4-methyl-1,3-thiazol-5-yl)pyrimidin-2-yl]amino}benzyl)acetamide]	2.39	
Cc1nc(C2CC2)sc1-c1ccnc(Nc2cccc(CNC(=O)OC(C)(C)C)c2)n1 [Example 624, tert-butyl-(3-{[4-(2-cyclopropyl-4-methyl-1,3-thiazol-5-yl)pyrimidin-2-yl]amino}benzyl)carbamate]	2.87	

From US20090030024A1, “THIAZOLES AS FUNGICIDES” (priority 2005, published 2009)
